Assays:
Assay in all cases: cells
SHP77 = type: functional, cell-based, Homo sapiens, SHP-77; details: Homo sapiens, SHP77;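 further: growth inhibition of human SHP-77 cells measured by a cell viability assay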
Description: SANGER: Inhibition of human SHP-77 cell growth in a cell viability assay.

A4-Fuk = type: functional, cell-based; details: Homo sapiens;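 further: growth inhibition of A4-Fuk cells, read out by a cell viability assay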
Description: SANGER: Inhibition of human A4-Fuk cell growth in a cell viability assay.

LS-513 = type: functional, cell-based, Homo sapiens; details: Homo sapiens, LS-513
Description: SANGER: Inhibition of human LS-513 cell growth in a cell viability assay.

NCI-H209 = type: functional, cell-based; details: Homo sapiens;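 further: growth inhibition of human NCI-H209 cells, measured by a cell viability assay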
Description: SANGER: Inhibition of human NCI-H209 cell growth in a cell viability assay.

SJSA-1 = type: functional, cell-based, Homo sapiens; details: Homo sapiens, SJSA-1;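 further: growth inhibition of human SJSA-1 cells, read out through a cell viability measurement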
Description: SANGER: Inhibition of human SJSA-1 cell growth in a cell viability assay.

MC116 = type: functional, cell-based; details: Homo sapiens;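 further: growth inhibition of MC116 cells, read out with a cell viability assay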
Description: SANGER: Inhibition of human MC116 cell growth in a cell viability assay.

NCI-H1651 = type: functional, cell-based, Homo sapiens; details: Homo sapiens, NCI-H1651;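 further: Read-out is a cell viability assay, with IC50 expressing inhibition of NCI-H1651 cell growth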
Description: SANGER: Inhibition of human NCI-H1651 cell growth in a cell viability assay.

IST-SL1 = type: functional, cell-based, Homo sapiens; details: Homo sapiens, IST-SL1;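 further: growth inhibition of human IST-SL1 cells, read out with a cell viability assay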
Description: SANGER: Inhibition of human IST-SL1 cell growth in a cell viability assay.

A498 = type: functional, cell-based, Homo sapiens; details: Homo sapiens, A498;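 further: growth inhibition of human A498 cells, read out with a cell viability assay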
Description: SANGER: Inhibition of human A498 cell growth in a cell viability assay.

NCI-H1755 = type: functional, cell-based, Homo sapiens; details: Homo sapiens, NCI-H1755;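 further: cell viability readout used to measure growth inhibition of NCI-H1755 cells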
Description: SANGER: Inhibition of human NCI-H1755 cell growth in a cell viability assay.

COLO-679 = type: functional, cell-based, Homo sapiens; details: Homo sapiens, COLO-679
Description: SANGER: Inhibition of human COLO-679 cell growth in a cell viability assay.

D-336MG = type: functional, cell-based, Homo sapiens; details: Homo sapiens, D-336MG
Description: SANGER: Inhibition of human D-336MG cell growth in a cell viability assay.

SW13 = type: functional, cell-based, Homo sapiens; details: Homo sapiens, SW13;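 further: IC50 is inhibition of SW13 cell growth, read out with a cell viability assay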
Description: SANGER: Inhibition of human SW13 cell growth in a cell viability assay.

RPMI-8226 = type: functional, cell-based; details: Homo sapiens
Description: SANGER: Inhibition of human RPMI-8226 cell growth in a cell viability assay.

SNU-449 = type: functional, cell-based, Homo sapiens; details: Homo sapiens, SNU-449
Description: SANGER: Inhibition of human SNU-449 cell growth in a cell viability assay.

647-V = type: functional, cell-based, Homo sapiens; details: Homo sapiens, 647-V;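 further: growth inhibition of 647-V cells, read out with a cell viability assay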
Description: SANGER: Inhibition of human 647-V cell growth in a cell viability assay.

HuCCT-1 = type: functional, cell-based, Homo sapiens, HuCCT1; details: Homo sapiens, HuCCT-1;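 further: growth inhibition of HuCCT-1 cells, read out by a cell viability assay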
Description: SANGER: Inhibition of human HuCCT1 cell growth in a cell viability assay.

NCI-H1092 = type: functional, cell-based; details: Homo sapiens;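 further: cell growth inhibition measured with a cell viability assay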
Description: SANGER: Inhibition of human NCI-H1092 cell growth in a cell viability assay.

YKG-1 = type: functional, cell-based, Homo sapiens; details: Homo sapiens, YKG-1;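 further: cell growth inhibition, read out with a viability assay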
Description: SANGER: Inhibition of human YKG-1 cell growth in a cell viability assay.

A253 cell line = type: functional, cell-based, Homo sapiens; details: Homo sapiens, A253;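 further: growth inhibition of A253 cells, read out with a cell viability assay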
Description: SANGER: Inhibition of human A253 cell growth in a cell viability assay.

ML-2 = type: functional, cell-based; details: Homo sapiens;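 further: growth inhibition of ML-2 cells, measured with a cell viability readout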
Description: SANGER: Inhibition of human ML-2 cell growth in a cell viability assay.

LB2241-RCC = type: functional, cell-based, Homo sapiens; details: Homo sapiens, LB2241-RCC;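 further: cell viability assay measuring how strongly the cultured human renal carcinoma line is prevented from growing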
Description: SANGER: Inhibition of human LB2241-RCC cell growth in a cell viability assay.

JVM-3 = type: functional, cell-based; details: Homo sapiens;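 further: growth inhibition of human JVM-3 cells, read out with a cell viability assay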
Description: SANGER: Inhibition of human JVM-3 cell growth in a cell viability assay.

P30-OHK = type: functional, cell-based; details: Homo sapiens;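 further: growth inhibition of the P30-OHK cell line, read out with a cell viability assay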
Description: SANGER: Inhibition of human P30-OHK cell growth in a cell viability assay.

ATN-1 = type: functional, cell-based; details: Homo sapiens;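 further: growth inhibition of human ATN-1 cells, read out with a cell viability assay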
Description: SANGER: Inhibition of human ATN-1 cell growth in a cell viability assay.

MSTO-211H = type: functional, cell-based, Homo sapiens; details: Homo sapiens, MSTO-211H
Description: SANGER: Inhibition of human MSTO-211H cell growth in a cell viability assay.

G-401 = type: functional, cell-based, Homo sapiens; details: Homo sapiens, G-401
Description: SANGER: Inhibition of human G-401 cell growth in a cell viability assay.

NY = type: functional, cell-based, Homo sapiens; details: Homo sapiens, NY
Description: SANGER: Inhibition of human NY cell growth in a cell viability assay.

SF-539 = type: functional, cell-based, Homo sapiens; details: Homo sapiens, SF-539;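 further: Read-out is a cell viability assay, with IC50 reflecting inhibition of cell growth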
Description: SANGER: Inhibition of human SF539 cell growth in a cell viability assay.

TGW = type: functional, cell-based; details: Homo sapiens;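 further: growth inhibition of human TGW cells, read out with a cell viability assay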
Description: SANGER: Inhibition of human TGW cell growth in a cell viability assay.

GR-ST = type: functional, cell-based; details: Homo sapiens
Description: SANGER: Inhibition of human GR-ST cell growth in a cell viability assay.

OAW-42 = type: functional, cell-based, Homo sapiens; details: Homo sapiens, OAW-42;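 further: growth inhibition of OAW-42 cells, read out with a cell viability assay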
Description: SANGER: Inhibition of human OAW-42 cell growth in a cell viability assay.

SK-NEP-1 = type: functional, cell-based; details: Homo sapiens;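 further: growth inhibition of human SK-NEP-1 cells, read out by a cell viability assay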
Description: SANGER: Inhibition of human SK-NEP-1 cell growth in a cell viability assay.

MDA-MB-175-VII = type: functional, cell-based, Homo sapiens; details: Homo sapiens, MDA-MB-175-VII
LB831-BLC = type: functional, cell-based, Homo sapiens; details: Homo sapiens, LB831-BLC;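 further: growth inhibition of LB831-BLC cells, read out with a cell viability assay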
Description: SANGER: Inhibition of human LB831-BLC cell growth in a cell viability assay.

HTC-C3 = type: functional, cell-based, Homo sapiens; details: Homo sapiens, HTC-C3;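 further: inhibition of cell growth, read out with a cell viability assay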
Description: SANGER: Inhibition of human HTC-C3 cell growth in a cell viability assay.

BCPAP = type: functional, cell-based, Homo sapiens; details: Homo sapiens, BCPAP;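 further: growth inhibition of BCPAP cells, read out in a cell viability assay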
Description: SANGER: Inhibition of human BCPAP cell growth in a cell viability assay.

TCC-SUP = type: functional, cell-based, Homo sapiens; details: Homo sapiens, TCC-SUP;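 further: growth inhibition of TCC-SUP cells, read out with a cell viability assay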
Description: SANGER: Inhibition of human TCCSUP cell growth in a cell viability assay.

MHH-PREB-1 = type: functional, cell-based; details: Homo sapiens;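 further: cell viability assay measuring inhibition of proliferation of human MHH-PREB-1 cells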
Description: SANGER: Inhibition of human MHH-PREB-1 cell growth in a cell viability assay.

HL-60 = type: functional, cell-based; details: Homo sapiens;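 further: growth inhibition of human HL-60 cells, read out with a cell viability assay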
Description: SANGER: Inhibition of human HL-60 cell growth in a cell viability assay.

DEL = type: functional, cell-based; details: Homo sapiens;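 further: growth inhibition of the human DEL cell line, read out with a cell viability assay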
Description: SANGER: Inhibition of human DEL cell growth in a cell viability assay.

SW1573 = type: functional, cell-based, Homo sapiens; details: Homo sapiens, SW1573;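 further: growth inhibition of SW1573 cells, read out with a cell viability assay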
Description: SANGER: Inhibition of human SW1573 cell growth in a cell viability assay.

Becker = type: functional, cell-based, Homo sapiens; details: Homo sapiens, Becker;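 further: growth inhibition of Becker cells, read out with a cell viability assay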
Description: SANGER: Inhibition of human Becker cell growth in a cell viability assay.

SK-UT-1 = type: functional, cell-based, Homo sapiens; details: Homo sapiens, SK-UT-1;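 further: growth inhibition of SK-UT-1 cells, measured by a cell viability assay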
Description: SANGER: Inhibition of human SK-UT-1 cell growth in a cell viability assay.

LB373-MEL-D = type: functional, cell-based, Homo sapiens; details: Homo sapiens, LB373-MEL-D;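 further: growth inhibition of the cell line, read out in a cell viability assay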
Description: SANGER: Inhibition of human LB373-MEL-D cell growth in a cell viability assay.

EW-3 = type: functional, cell-based; details: Homo sapiens;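 further: cell viability assay read-out, IC50 reflects inhibition of growth of the EW-3 cells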
Description: SANGER: Inhibition of human EW-3 cell growth in a cell viability assay.

CAL-62 = type: functional, cell-based, Homo sapiens; details: Homo sapiens, CAL-62;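 further: growth inhibition of CAL-62 cells, read out with a cell viability assay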
Description: SANGER: Inhibition of human CAL-62 cell growth in a cell viability assay.

HCE-4 = type: functional, cell-based, Homo sapiens; details: Homo sapiens, HCE-4;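 further: cell viability assay measuring inhibition of growth in the human HCE-4 cell line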
Description: SANGER: Inhibition of human HCE-4 cell growth in a cell viability assay.

BB49-HNC = type: functional, cell-based, Homo sapiens; details: Homo sapiens, BB49-HNC;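 further: cell viability assay read-out, reported as inhibition of BB49-HNC cell growth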
Description: SANGER: Inhibition of human BB49-HNC cell growth in a cell viability assay.

H4 = type: functional, cell-based; details: Homo sapiens
Description: SANGER: Inhibition of human H4 cell growth in a cell viability assay.

SCC-15 = type: functional, cell-based, Homo sapiens; details: Homo sapiens, SCC-15;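 further: growth inhibition of SCC-15 cells, read out with a cell viability assay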
Description: SANGER: Inhibition of human SCC-15 cell growth in a cell viability assay.

EW-24 = type: functional, cell-based; details: Homo sapiens;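 further: human EW-24 cancer cell line, growth inhibition read out via a cell viability assay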
Description: SANGER: Inhibition of human EW-24 cell growth in a cell viability assay.

HC-1 = type: functional, cell-based; details: Homo sapiens;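 further: growth inhibition of HC-1 cells measured by a cell viability assay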
Description: SANGER: Inhibition of human HC-1 cell growth in a cell viability assay.

CCOc1nc(NC(=O)Cc2cc(OC)ccc2OC)cc(N)c1C#N
IC50 (SHP77): > 10 µM
IC50 (A4-Fuk): > 10 µM
IC50 (LS-513): > 10 µM
IC50 (NCI-H209): > 10 µM
IC50 (SJSA-1): > 10 µM
IC50 (MC116): > 10 µM
IC50 (NCI-H1651): > 10 µM
IC50 (IST-SL1): > 10 µM
IC50 (A498): > 10 µM
IC50 (NCI-H1755): > 10 µM
IC50 (COLO-679): > 10 µM
IC50 (D-336MG): > 10 µM
IC50 (SW13): > 10 µM
IC50 (RPMI-8226): > 10 µM
IC50 (SNU-449): > 10 µM
IC50 (647-V): > 10 µM
IC50 (HuCCT-1): > 10 µM
IC50 (NCI-H1092): > 10 µM
IC50 (YKG-1): > 10 µM
IC50 (A253 cell line): > 10 µM
IC50 (ML-2): > 10 µM
IC50 (LB2241-RCC): 6.58 µM
IC50 (JVM-3): > 10 µM
IC50 (P30-OHK): > 10 µM
IC50 (ATN-1): > 10 µM
IC50 (MSTO-211H): > 10 µM
IC50 (G-401): > 10 µM
IC50 (NY): > 10 µM
IC50 (SF-539): > 10 µM
IC50 (TGW): > 10 µM
IC50 (GR-ST): > 10 µM
IC50 (OAW-42): > 10 µM
IC50 (SK-NEP-1): > 10 µM
IC50 (MDA-MB-175-VII): > 10 µM
IC50 (LB831-BLC): > 10 µM
IC50 (HTC-C3): > 10 µM
IC50 (BCPAP): > 10 µM
IC50 (TCC-SUP): > 10 µM
IC50 (MHH-PREB-1): > 10 µM
IC50 (HL-60): > 10 µM
IC50 (DEL): > 10 µM
IC50 (SW1573): > 10 µM
IC50 (Becker): > 10 µM
IC50 (SK-UT-1): > 10 µM
IC50 (LB373-MEL-D): > 10 µM
IC50 (EW-3): > 10 µM
IC50 (CAL-62): > 10 µM
IC50 (HCE-4): > 10 µM
IC50 (BB49-HNC): > 10 µM
IC50 (H4): > 10 µM
IC50 (SCC-15): > 10 µM

CC(=O)O[C@@H]1[C@@H](OC(C)=O)[C@@H](O)[C@H](Oc2c(-c3ccc(O)cc3)oc3cc(O)cc(O)c3c2=O)O[C@H]1C
IC50 (SHP77): > 10 µM
IC50 (A4-Fuk): > 10 µM
IC50 (LS-513): > 10 µM
IC50 (NCI-H209): > 10 µM
IC50 (SJSA-1): > 10 µM
IC50 (MC116): > 10 µM
IC50 (NCI-H1651): > 10 µM
IC50 (IST-SL1): > 10 µM
IC50 (A498): > 10 µM
IC50 (NCI-H1755): > 10 µM
IC50 (COLO-679): > 10 µM
IC50 (D-336MG): > 10 µM
IC50 (SW13): > 10 µM
IC50 (RPMI-8226): > 10 µM
IC50 (SNU-449): > 10 µM
IC50 (647-V): > 10 µM
IC50 (HuCCT-1): > 10 µM
IC50 (NCI-H1092): > 10 µM
IC50 (YKG-1): > 10 µM
IC50 (A253 cell line): > 10 µM
IC50 (ML-2): > 10 µM
IC50 (LB2241-RCC): > 10 µM
IC50 (JVM-3): > 10 µM
IC50 (P30-OHK): > 10 µM
IC50 (ATN-1): > 10 µM
IC50 (MSTO-211H): > 10 µM
IC50 (G-401): > 10 µM
IC50 (NY): > 10 µM
IC50 (SF-539): > 10 µM
IC50 (TGW): > 10 µM
IC50 (GR-ST): > 10 µM
IC50 (OAW-42): > 10 µM
IC50 (SK-NEP-1): > 10 µM
IC50 (MDA-MB-175-VII): > 10 µM
IC50 (LB831-BLC): > 10 µM
IC50 (HTC-C3): > 10 µM
IC50 (BCPAP): > 10 µM
IC50 (TCC-SUP): > 10 µM
IC50 (MHH-PREB-1): > 10 µM
IC50 (HL-60): > 10 µM
IC50 (DEL): > 10 µM
IC50 (SW1573): > 10 µM
IC50 (Becker): > 10 µM
IC50 (SK-UT-1): > 10 µM
IC50 (LB373-MEL-D): > 10 µM
IC50 (EW-3): > 10 µM
IC50 (CAL-62): > 10 µM
IC50 (HCE-4): > 10 µM
IC50 (BB49-HNC): > 10 µM
IC50 (H4): > 10 µM
IC50 (SCC-15): > 10 µM

CN(Cc1cnc2nc(N)nc(N)c2n1)c1ccc(C(=O)N[C@@H](CCC(=O)O)C(=O)O)cc1 [METHOTREXATE]
IC50 (SHP77): > 0.2 µM
IC50 (A4-Fuk): 0.0382 µM
IC50 (LS-513): > 0.2 µM
IC50 (NCI-H209): > 0.2 µM
IC50 (SJSA-1): > 0.2 µM
IC50 (MC116): 0.0606 µM
IC50 (NCI-H1651): > 0.2 µM
IC50 (IST-SL1): > 0.2 µM
IC50 (A498): > 0.2 µM
IC50 (NCI-H1755): > 0.2 µM
IC50 (COLO-679): > 0.2 µM
IC50 (D-336MG): > 0.2 µM
IC50 (SW13): > 0.2 µM
IC50 (EW-24): > 0.2 µM
IC50 (RPMI-8226): 0.101 µM
IC50 (SNU-449): > 0.2 µM
IC50 (647-V): > 0.2 µM
IC50 (HuCCT-1): > 0.2 µM
IC50 (NCI-H1092): > 0.2 µM
IC50 (YKG-1): > 0.2 µM
IC50 (ML-2): 0.00497 µM
IC50 (LB2241-RCC): > 0.2 µM
IC50 (JVM-3): 0.016 µM
IC50 (P30-OHK): 0.0436 µM
IC50 (ATN-1): 0.00392 µM
IC50 (MSTO-211H): > 0.2 µM
IC50 (G-401): > 0.2 µM
IC50 (NY): > 0.2 µM
IC50 (SF-539): > 0.2 µM
IC50 (GR-ST): 0.0363 µM
IC50 (OAW-42): > 0.2 µM
IC50 (SK-NEP-1): 0.00482 µM
IC50 (MDA-MB-175-VII): > 0.2 µM
IC50 (LB831-BLC): > 0.2 µM
IC50 (HTC-C3): > 0.2 µM
IC50 (BCPAP): 0.0431 µM
IC50 (TCC-SUP): > 0.2 µM
IC50 (MHH-PREB-1): 0.0132 µM
IC50 (HL-60): 0.0248 µM
IC50 (DEL): 0.00312 µM
IC50 (SW1573): > 0.2 µM
IC50 (Becker): > 0.2 µM
IC50 (HC-1): 0.0696 µM
IC50 (SK-UT-1): > 0.2 µM
IC50 (CAL-62): > 0.2 µM
IC50 (HCE-4): > 0.2 µM
IC50 (BB49-HNC): > 0.2 µM
IC50 (H4): > 0.2 µM
IC50 (SCC-15): > 0.2 µM

C=CCNC1=C2C[C@@H](C)C[C@H](OC)[C@H](O)[C@@H](C)/C=C(\C)[C@H](OC(N)=O)[C@@H](OC)/C=C\C=C(/C)C(=O)NC(=CC1=O)C2=O [TANESPIMYCIN]
IC50 (SHP77): 0.905 µM
IC50 (A4-Fuk): > 1 µM
IC50 (LS-513): 0.24 µM
IC50 (NCI-H209): > 1 µM
IC50 (SJSA-1): 0.318 µM
IC50 (MC116): > 1 µM
IC50 (NCI-H1651): 0.7 µM
IC50 (IST-SL1): > 1 µM
IC50 (A498): 0.102 µM
IC50 (NCI-H1755): 0.0634 µM
IC50 (COLO-679): 0.112 µM
IC50 (D-336MG): 0.0331 µM
IC50 (SW13): > 1 µM
IC50 (RPMI-8226): 0.663 µM
IC50 (SNU-449): > 1 µM
IC50 (647-V): > 1 µM
IC50 (HuCCT-1): 0.323 µM
IC50 (NCI-H1092): > 1 µM
IC50 (YKG-1): 0.0507 µM
IC50 (A253 cell line): > 1 µM
IC50 (ML-2): 0.231 µM
IC50 (LB2241-RCC): 0.101 µM
IC50 (JVM-3): 0.638 µM
IC50 (P30-OHK): > 1 µM
IC50 (ATN-1): > 1 µM
IC50 (MSTO-211H): 0.558 µM
IC50 (G-401): 0.104 µM
IC50 (NY): > 1 µM
IC50 (SF-539): 0.0668 µM
IC50 (TGW): > 1 µM
IC50 (GR-ST): > 1 µM
IC50 (OAW-42): > 1 µM
IC50 (SK-NEP-1): > 1 µM
IC50 (MDA-MB-175-VII): 0.0335 µM
IC50 (LB831-BLC): 0.139 µM
IC50 (HTC-C3): 0.265 µM
IC50 (BCPAP): 0.189 µM
IC50 (TCC-SUP): 0.0596 µM
IC50 (MHH-PREB-1): > 1 µM
IC50 (HL-60): > 1 µM
IC50 (DEL): 0.185 µM
IC50 (SW1573): 0.148 µM
IC50 (Becker): 0.0389 µM
IC50 (SK-UT-1): 0.0318 µM
IC50 (LB373-MEL-D): > 1 µM
IC50 (EW-3): 0.127 µM
IC50 (CAL-62): 0.162 µM
IC50 (HCE-4): 0.474 µM
IC50 (BB49-HNC): 0.0424 µM
IC50 (H4): 0.0309 µM
IC50 (SCC-15): > 1 µM
